These results are taken from patent US12692251B2, “Pralsetinib pharmaceutical compositions” (Rigel Pharmaceuticals, Inc., priority 2020, dated 2026).

Molecules are shown by their SMILES.

Data set [1] is described as follows: Dynamic Vapor Sorption (DVS). In kind it is physicochemical. As to conditions: for total mass change by DVS: between 2% and 95% relative humidity. The method, then: Dynamic Vapor Sorption (DVS) was done using a DVS Intrinsic 1. The sample is loaded into a sample pan and suspended from a microbalance. A typical sample mass for DVS measurement is 25 mg. Nitrogen gas bubbled through distilled water provides the desired relative humidity. A typical measurement comprises the steps: • 1—Equilibrate at 50% RH • 2—50% to 2%. (50%, 40%, 30%, 20%, 10% and 2%) • a. Hold minimum of 5 mins and maximum of 60 minutes at each humidity. The pass criteria is less than 0.002% change • 3 —2% to 95% (2%, 10%, 20%, 30%, 40%, 50%, 60%, 70%, 80%, 90%, 95%) • a. Hold minimum of 5 mins and maximum of 60 minutes at each humidity. The pass criteria is less than 0.002% change • 4—95% to 2% (95%, 80%, 70%, 60%, 50%, 40%, 30%, 20%, 10%, 2%) • a. Hold minimum of 5 mins and maximum of 60 minutes at each humidity. The pass criteria is less than 0.002% change • 5—2% to 50% (2%, 10%, 20%, 30%, 40%, 50%) • a. Hold minimum of 5 mins and maximum of 60 minutes at each humidity. The pass criteria is less than 0.002% change

Data set [2] is described as follows: Solubility of pralsetinib and its solid forms. In kind it is physicochemical. As to conditions: for solubility in simulated gastric fluid: simulated gastric fluid (possibly due to conversion to HCl salt).
Data set [3] can be described thus: Accelerated stability for 4 weeks at 40° C./75% RH. In kind it is physicochemical. As to conditions: Compositions 1-3. The protocol: The manufacturing process for the Compositions 1-3 are as follows: • 1) Intragranular components were blended in a suitably sized contained using the Turbula blender for 3 minutes at 23 rpm • 2) Intragranular blend was dry granulated by densification using a Riva minipress fitted with 22×9 mm caplet tooling • 3) Resultant material was milled using a Comil 193 fitted with 991 μm screen 4) Granule bulk density was determined and if not within 0.55-0.6 g/mL, densification and milling repeated until the desired bulk density was achieved • 5) Extragranular components were blend with the granules in a Turbula blender for 2 minutes at 23 rpm • 6) Final blend was hand filled in to Size 0 HPMC Capsules (Vcaps® Plus) • 7) Capsules were packed into 60 mL HDPE bottles with 4 g desiccant cap at a count of 30 capsules per bottle • 8) Packed product was placed on accelerated stability for 4 weeks at 40° C./75% RH

For data set [4], the system named is NSCLC and thyroid cancer xenografts driven by various RET mutations and fusions. As to conditions: in vivo; cited from earlier work.
For data set [5], the system named is VEGFR2. As to conditions: in vivo; cited from earlier work.
A short description of data set [6]: Solid form stability to humidity and drying. In kind it is physicochemical. As to conditions: for stability to drying: 50° C. (under vacuum) where stated. The protocol:
In one aspect, the present disclosure provides a process for preparing crystalline Form A, Form B or Form C. In a particular aspect, Form A can be obtained by slurrying in alcohols, acetone, and acetonitrile or Form A was prepared by evaporative crystallization in multiple solvents and cooling crystallization in isopropanol and 1-propanol. Form A can also be produced by recrystallization in acetone:water. Form C can be obtained by recrystallizing Compound (I) in various water containing solvent systems (acetone:water, methanol:water, isopropanol:water, dimethylacetamide:water, tetrahydrofuran:water). Form C was stable drying at 50° C. under vacuum, and converted to Form B (anhydrous) upon heating to 150° C. […] Form C was not as hygroscopic as Form A during the dynamic vapor sorption measurements, gaining only 1.44% water.

The nature of data set [7]: Competitive slurry experiments. In kind it is physicochemical.

Consider `CO[C@]1(C(=O)N[C@@H](C)c2ccc(-n3cc(F)cn3)nc2)CC[C@H](c2nc(C)cc(Nc3cc(C)[nH]n3)n2)CC1` [Form B, (cis)-N—((S)-1-(6-(4-fluoro-1H-pyrazol-1-yl)pyridin-3-yl)ethyl)-1-methoxy-4-(4 methyl-6-(5-methyl-1H-pyrazol-3-ylamino)pyrimidin-2-yl)cyclohexanecarboxamide], for which the “total mass change by DVS” value in data set [1] is listed as 1.4 wt. %.
Take `CO[C@]1(C(=O)N[C@@H](C)c2ccc(-n3cc(F)cn3)nc2)CC[C@H](c2nc(C)cc(Nc3cc(C)[nH]n3)n2)CC1` [pralsetinib, (cis)-N—((S)-1-(6-(4-fluoro-1H-pyrazol-1-yl)pyridin-3-yl)ethyl)-1-methoxy-4-(4 methyl-6-(5-methyl-1H-pyrazol-3-ylamino)pyrimidin-2-yl)cyclohexanecarboxamide]: the aqueous solubility entry in data set [2] is on record as “low aqueous solubility”. In addition, the “solubility in acidic pH” value in data set [2] (acidic pH (pH 1.2 medium)) is on record as “relatively high solubility”. Besides, the “physical form by XRPD after storage” value in data set [3] is given as “remains as an amorphous solid dispersion”. Besides, the growth of xenografts entry in data set [4] was “potently inhibits growth”. Further, the “inhibition of VEGFR2” value in data set [5] is recorded as “without inhibiting”.
For the molecule `CO[C@]1(C(=O)N[C@@H](C)c2ccc(-n3cc(F)cn3)nc2)CC[C@H](c2nc(C)cc(Nc3cc(C)[nH]n3)n2)CC1` [Form C, (cis)-N—((S)-1-(6-(4-fluoro-1H-pyrazol-1-yl)pyridin-3-yl)ethyl)-1-methoxy-4-(4 methyl-6-(5-methyl-1H-pyrazol-3-ylamino)pyrimidin-2-yl)cyclohexanecarboxamide], in data set [2], the “solubility in simulated gastric fluid” value is “high solubility”, the “solubility in simulated intestinal fluid” value is on record as “lower solubility than Form A” and the solubility in water result is reported as “lower solubility than Form A”. In data set [1], the “water gained during dynamic vapor sorption measurements” value was determined as 1.44% and the “total mass change by DVS” value is 1.4 wt. %. The “stability by X-ray powder diffraction during humidity testing” value in data set [6] (75% relative humidity and 40° C. for one week, and cycling down to 2% relative humidity by DVS) is recorded as “remained stable”. Moreover, the “form conversion in competitive slurry, acetone and isopropanol” value in data set [7] (acetone and isopropanol) is “converted to Form A”.
Consider `COC1(C(=O)NC(C)c2ccc(-n3cc(F)cn3)nc2)CCC(c2nc(C)cc(Nc3cc(C)[nH]n3)n2)CC1.Cl` (centres unmarked) [Form I], for which, in data set [6], the stability to drying entry is “stable to drying” and the “behaviour at elevated humidity / humidification” value is given as “deliquesced”.
For the molecule `COC1(C(=O)NC(C)c2ccc(-n3cc(F)cn3)nc2)CCC(c2nc(C)cc(Nc3cc(C)[nH]n3)n2)CC1.Cl` (centres unmarked) [Form III], the “behaviour at elevated humidity / humidification” value in data set [6] is listed as “stable to humidification”.
`CO[C@]1(C(=O)N[C@@H](C)c2ccc(-n3cc(F)cn3)nc2)CC[C@H](c2nc(C)cc(Nc3cc(C)[nH]n3)n2)CC1` [Form A, (cis)-N—((S)-1-(6-(4-fluoro-1H-pyrazol-1-yl)pyridin-3-yl)ethyl)-1-methoxy-4-(4 methyl-6-(5-methyl-1H-pyrazol-3-ylamino)pyrimidin-2-yl)cyclohexanecarboxamide]: in data set [2], the “solubility in simulated gastric fluid” value is “high solubility”, the “solubility in simulated intestinal fluid” value is recorded as “low solubility” and the solubility in water entry is “low solubility”. For the same molecule, in data set [1] (between 2-95% relative humidity), the “reversible mass change by DVS” value was “about 10%”. Moreover, in data set [6] (prolonged humidity exposure), the “conversion on prolonged humidity exposure” value is recorded as “did not convert to Form C”. Besides, the “form conversion in competitive slurry, methanol:water” value in data set [7] (methanol:water at high ratios of water to methanol and lower temperatures) is “converted to Form C”.
For `CO[C@]1(C(=O)N[C@@H](C)c2ccc(-n3cc(F)cn3)nc2)CC[C@H](c2nc(C)cc(Nc3cc(C)[nH]n3)n2)CC1.Cl` [Form II], in data set [6], the stability to drying entry is listed as “converted to Form III”.
